Laboratory results published in patent publication US6359003B1 (Fumapharm AG, priority 1998, dated 2002).

Tests used:
[1] = high dosages; parenterally, transdermally and especially perorally; cited from earlier work
Ehrlich ascites tumour = settings: mice; cited from earlier work
[2] = test system: acute rejection of the graft (host-versus-graft reaction), rat kidney transplantation model; test: Acute rejection model, rat kidney transplantation; format: in vivo; settings: 33.3 mg/kg/day, day -28 to +28
Method: (§1) The effect of calcium methyl fumarate for alleviating the host-versus-graft reaction both in acute and chronic rejection models was investigated on a rat kidney transplantation model.
In order to investigate the influence of calcium methyl fumarate on the acute rejection of the graft, animal experiments were carried out (on rats). For this purpose, two groups of rats were treated with calcium methyl fumarate (CaMF; dosage: 33.3 mg/kg/day) or a placebo for a total period of 56 days [28 days before the kidney transplantation (−28) to 28 days after transplantation (+28)]. The number of animals with results fit for evaluation were n=9 in the placebo group and n=12 in the verum group. After that, the survival time of the animals in days after the transplantation was evaluated.

[3] = test system: chronic rejection (host-versus-graft reaction), rat kidney transplantation model; test: Chronic rejection model, rat kidney transplantation; format: in vivo; settings: for Creatinine: serum; for Creatinine / Proteinuria: week 10 after transplantation, cyclosporine 1.5 mg/kg/day s.c. day 0-9
Source text: as §1
In order to investigate the effect of calcium methyl fumarate on chronic rejection, three groups of rats received transplants (kidneys) in animal experiments. Groups 1 and 2 received a placebo (group 1) or calcium methyl fumarate (CaMF) (group 2) as active ingredient from day 28 before until day 28 after transplantation. The third group was given CaMF from day 30 to 60 after the kidney transplantation. All animals received cyclosporine from day 0 to 9 after the transplantation. The dosages administered were 1.5 mg/kg/day of cyclosporine (subcutaneously) and 33.3 mg/kg/day of CaMF (perorally).
The effect of the treatment was checked by measuring the creatinine levels in the serum, initially on day 0, 1, 3, 5, and 10 and then once a week, and by observing the urine protein levels which were measured once a week. In groups 1 and 2, n=10 animals each provided results suitable for evaluation; in group 3, n=9.

[4] = Group 2: 33.3 mg/kg/day perorally day -28 to +28, n=10
[5] = Group 3: 33.3 mg/kg/day perorally day +30 to +60, n=9

## NC(=O)/C=C/C(N)=O [fumaramide]
[1]
  Side effects and toxicity: unacceptably severe side effects and high toxicity

## O=C(O)/C(O)=C(\O)C(=O)O [dihydroxyl fumaric acid]
[1]
  Side effects and toxicity: unacceptably severe side effects and high toxicity

## O=C(O)/C=C/C(=O)O [Fumaric acid]
Ehrlich ascites tumour
  Growth of the Ehrlich ascites tumour: inhibits the growth

## calcium methyl fumarate [CaMF]
[2]
  Average survival time in days versus placebo (in words): significant increase
[2]; >100 days after transplantation, n=12
  Number of surviving animals: 4
[2]; after kidney transplantation, n=12
  Average survival time: >42.3 ± 41.0 days
[2]; day 6 after transplantation, n=12
  Number of surviving animals: 12
[2]; day 7 after transplantation, n=12
  Number of surviving animals: 12
[2]; day 8 after transplantation, n=12
  Number of surviving animals: 12
[2]; day 9 after transplantation, n=12
  Number of surviving animals: 11
[2]; day 10 after transplantation, n=12
  Number of surviving animals: 10
[2]; day 12 after transplantation, n=12
  Number of surviving animals: 9
[2]; day 13 after transplantation, n=12
  Number of surviving animals: 8
[2]; day 14 after transplantation, n=12
  Number of surviving animals: 7
[2]; day 16 after transplantation, n=12
  Number of surviving animals: 6
[2]; day 17 after transplantation, n=12
  Number of surviving animals: 5
[2]; day 26 after transplantation, n=12
  Number of surviving animals: 5
[2]; day 27 after transplantation, n=12
  Number of surviving animals: 4
[3]; 10 weeks of follow-up, versus placebo
  Damage to the kidneys (in words): significant inhibition of damage to the kidneys
[3]; [4]
  Creatinine: 55.7 ± 9.6 µmol/L
  Proteinuria: 31.8 ± 18.4 mg/24 hrs
[3]; [5]
  Creatinine: 88.0 ± 42.4 µmol/L
  Proteinuria: 52.5 ± 31.6 mg/24 hrs

## N#C/C=C/C#N [fumaronitrile]
[1]
  Side effects and toxicity: unacceptably severe side effects and high toxicity
